Measurements as given in patent US11878013B2, “Isoquinoline derivative, preparing method thereof, and pharmaceutical composition for preventing or treating autophagy related diseases containing the same as an active ingredient” (Korea Research Institute of Chemical Technology, priority 2021, dated 2024).
Read-outs that look alike come from different tables or passages of the source.

Columns and labels:
[1] = test system: NO production; experiment: NO production in LPS-treated Raw 264.7 macrophages (Griess reagent); assay type: cell-based, mouse; details: 1 ug/ml LPS, 24 hours, Raw 264.7 cells; test concentration not given
Protocol: In order to confirm the effect of the compound of Example 1 of the present invention on NO production in Raw 264.7 mouse macrophages in which inflammatory response was induced by LPS, an experiment was performed as follows.
(§1) Raw 264.7 mouse macrophages were aliquoted in a 96-well plate at the density of 1×10^5 cells/well and stabilized in a 37° C., 5% CO2 incubator for 24 hours. The Raw 264.7 cells were treated with the compound of Example 1 by concentration. After 1 hour, the cells were treated with 1 ug/ml of LPS and cultured for 24 hours. For the measurement of NO production, 40 mg/ml of Griess reagent was prepared and it was mixed with the culture supernatant at the same ratio. The mixture was reacted at room temperature for 15 minutes, and absorbance was measured at 540 nm. Based on the results obtained therefrom, the cell viability and NO production rate were expressed as percentages in terms of LPS.

[2] = test system: Raw 264.7 mouse macrophages; experiment: Cell viability of LPS-treated Raw 264.7 macrophages; assay type: cell-based
Protocol: as §1

[3] = test system: artificial corneal tissue; experiment: Ocular toxicity test on artificial cornea (MTT); assay type: cell-based; details: 10% acetic acid control group
Protocol: In order to evaluate the ocular toxicity that may be induced upon ocular exposure of the compound of Example 1 of the present invention, the following experiment was performed using the cultured artificial cornea.
The artificial corneal tissue cultured in agarose medium was transferred to a 12-well cell culture plate, to which culture medium was added, followed by culture in a humidified 37° C. 5% CO2 incubator for one day. The medium on the artificial cornea culture surface was eliminated, and 30 μl of the compound of Example 1 of the present invention diluted with PBS was evenly applied to the cornea surface, followed by incubation at room temperature for 30 minutes. The cell surface was washed twice with 10 ml of PBS, and a fresh culture medium was added, followed by incubation in a humidified 37° C. 5% CO2 incubator for 30 minutes. In order to measure the viability of the cornea, the artificial cornea was transferred to a 12-well plate containing 2 ml of MTT solution (1 mg/ml), followed by culture for 3 hours. The stained artificial corneal tissue was taken and transferred to a tube containing 1.5 ml of isopropanol, and then incubated with shaking to decolorize. The solution was centrifuged at 13,000 rpm for 5 minutes, 100 μl of the supernatant was transferred to each well of a 96-well plate, and absorbance was measured at 570 nm.

[4] = test system: zebrafish; experiment: Whitening effect: melanin synthesis / melanocyte formation in zebrafish; assay type: in vivo; details: 5 μM, treated 10 hours after fertilization, read at 32 hours after fertilization; PTU 200 μM as control
From the text: When observing the regeneration of melanin pigment, after inhibiting the formation of melanin pigment, it can be investigated by limiting it to the melanocyte generation pathway, and it is easy to observe the melanin synthesized in the initial stage of development. Therefore, zebrafish is more useful for the study of melanin pigment changes compared to other animal models (Logan D W, Burn S F, Jackson I J. (2006) Regulation of pigmentation in zebrafish melanophores. Pigment Cell Res. 2006 June; 19(3):206-13.).
Particularly, zebrafish fertilized eggs 10 hours after fertilization were placed in a 24-well plate (10 eggs/well), and 1 ml of egg water was added to each well of the plate. The compound of Example 1 was added to each well at the concentrations of 0.1 μM and 1 μM, so that the final volume of each well was 2 ml. Then, each 24-well plate was wrapped in foil to block light, and then incubated in a 28° C. incubator for 22 hours. At 32 hours after fertilization, in order to photograph the formation of black melanocytes, the chorion of the developing embryo was peeled off using a forcep (Fine Science Tools). After anesthetizing the developing embryo with Tricaine (4 g/L), the embryo was photographed on 3% methyl cellulose. As the equipment for photographing the developing embryo, a LEICA MZ10F fluorescence microscope, a LEICA DFC425 camera, and Leica Application Suite software (v4.5) were used. In all the experimental procedures, egg water sterilized after dissolving 60 mg/L of sea salt (Sigma-Aldrich, S9883) in tertiary distilled water was used as a solution for culturing the developing embryo. As a control group, a solvent control group (0.4% DMSO) and phenylthiourea (200 μM PTU), known as a tyrosinase inhibitor, were used (FIG. 6A).
In the same manner, experiments were performed with the compound of Comparative Example 1 at the concentrations of 0.5 μM, 1 μM, and 5 μM, and the results are shown in FIG. 6B.
On the other hand, in order to confirm the ability of the compound of the present invention to inhibit the melanin synthesis of the already generated melanocytes, the following experiment was performed with juvenile fish 60 hours after fertilization. Particularly, juvenile fish 60 hours after fertilization were placed in a 24-well plate (10/well), and 1 ml of egg water was added to each well of the plate. The compound of Example 1 was added to each well at the concentrations of 10 μM and 20 μM, so that the final volume of each well was 2 ml. Then, each 24-well plate was wrapped in foil to block light, and then incubated in a 28° C. incubator for 12 hours. In order to photograph the formation of black melanocytes, the developing embryo was anesthetized with Tricaine (4 g/L), and then the embryo was photographed on 3% methyl cellulose. […]

[5] = test system: melanogenesis; details: Bioorganic & Medicinal Chemistry Letters 30 (2020) 127201; cited from earlier work
[6] = test system: artificial skin tissue; experiment: Skin toxicity test on artificial skin (MTT); assay type: cell-based; details: 5% SDS control group
Protocol: In order to evaluate the skin toxicity that may be induced upon skin contact of the compound of Example 1 of the present invention, the following experiment was performed using the artificial skin prepared with a structure similar to the skin of a living body.
Particularly, the experiment was performed according to OECD Guideline for the Testing of Chemicals No. 439, OECD (2010) and the method recommended by the manufacturer (Tegoscience).
First, the artificial skin cultured in agarose medium was transferred to a 12-well cell culture plate, to which culture medium was added, followed by culture in a humidified 37° C. 5% CO2 incubator for one day. The medium on the artificial skin culture surface was eliminated, and 90 μl of the compound of Example 1 of the present invention diluted with PBS was evenly applied to the skin surface, followed by incubation at room temperature for 15 minutes. The cell surface was washed twice with 10 ml of PBS, and a fresh culture medium was added, followed by incubation in a humidified 37° C. 5% CO2 incubator for 42 hours. In order to measure the viability of the skin, the artificial skin was transferred to a 12-well plate containing 2 ml of MTT solution (0.3 mg/ml), followed by culture for 3 hours. The stained artificial skin tissue was taken and transferred to a tube containing 500 μl of 0.04 N-isopropanol, and then incubated with shaking for 4 hours to decolorize. The solution was centrifuged at 13,000 rpm for 5 minutes, 100 μl of the supernatant was transferred to each well of a 96-well plate, and absorbance was measured at 570 nm.

[7] = test system: zebrafish; experiment: Fatty liver inhibitory effect in tamoxifen-treated zebrafish juvenile fish (LipidGreen2 staining); assay type: in vivo; details: 5 μM tamoxifen alone, 22 hours (FIG. 8 top)
Protocol: In order to evaluate the inhibitory efficacy of the novel isoquinoline derivative of the present invention on fatty liver, an experiment was performed as follows using LipidGreen2 staining reagent capable of staining lipid droplets.
Particularly, the zebrafish used in this Experimental Example were juvenile fish 5 days after fertilization. Healthy juvenile fish were placed in a 24-well plate (10/well), and 1 ml of egg water was added to each well of the plate. As a negative control that could not regulate fatty liver, DMSO diluted at 0.4% was exposed to juvenile fish, and tamoxifen (Sigma-Aldrich, T5648) diluted at 5 μM was exposed to juvenile fish to control […] fatty liver. In order to investigate the fatty liver inhibitory efficacy of the compound of Example 1 of the present invention, the compound (0.5 μM, 1 μM and 5 μM) was mixed with 5 μM tamoxifen and exposed to juvenile fish (final volume of each well: 2 ml). The 24-well plate containing the compound was wrapped in foil to block light, and then incubated in a 28° C. incubator for 22 hours. The plate was washed with egg water 3 times for 5 minutes to remove the compound from each well. For fat-specific staining, LipidGreen2 diluted at 5 μM was exposed to juvenile fish for 30 minutes, and then washed 3 times with egg water for 5 minutes. To evaluate the fatty liver of zebrafish juvenile fish, the developing embryo was anesthetized with Tricaine (4 g/L), and then photographed on 3% methyl cellulose. As the equipment for photographing the developing embryo, a LEICA MZ10F fluorescence microscope, a LEICA DFC425 camera, and Leica Application Suite software (v4.5) were used. For the fluorescence wavelength, a GFP Plants filter set (Excitation 470/40 nm, Emission 525/50 nm) was used. To quantify the liver area and the degree of fat staining of juvenile fish on the image, the area and the fluorescence intensity of the liver part of each image were quantified using ImageJ 1.50i software (National Institutes of Health, USA) and converted into heatmap images.

[8] = LPS-treated Raw 264.7 cells, 24 hours, test concentration not given

## 1-((4-Fluorophenyl)Thio) Isoquinoline [Comparative Example 1, reference compound]
[1]
  NO production (% of control): 70 % of control
[2]
  Cell viability (% of control): 95 % of control

## O=S(=O)(c1ccc(F)cc1)c1nccc2ccccc12 [Comparative Example 2, 1-((4-Fluorophenyl) Sulfonyl)Isoquinoline, reference compound]
[1]
  NO production (% of control): 65 % of control
[2]; [8]
  Cell viability (% of control): 73 % of control

## CC(=O)O [acetic acid, reference compound]
[3]
  MTT color development of artificial cornea: significant decrease of the MTT color development

## [O-][S+](c1ccc(C(F)(F)F)cc1)c1nccc2ccccc12 (centres unmarked) [Example 5, 1-((4-(Trifluoromethyl)Phenyl)Sulfinyl) Isoquinoline]
[1]
  NO production (% of control): 25 % of control
[2]; [8]
  Cell viability (% of control): 101 % of control

## Fc1ccc(Sc2nccc3ccccc23)cc1 [Comparative Example 1, 1-((4-Fluorophenyl)Thio) Isoquinoline, reference compound]
[4]
  synthesis of melanin: level similar to that of the PTU-treated group
[5]
  anti-melanogenic effect: anti-melanogenic effect

## CCCCCCCCCCCCOS(=O)(=O)[O-].[Na+] [SDS, reference compound]
[6]
  MTT color development of artificial skin: significant decrease of the MTT color development

## [O-][S+](c1ccc(F)cc1)c1ccnc2ccccc12 (centres unmarked) [Example 2, 4-((4-Fluorophenyl)Sulfinyl)Quinoline]
[1]
  NO production (% of control): 26 % of control
[2]; [8]
  Cell viability (% of control): 100 % of control

## CC/C(=C(\c1ccccc1)c1ccc(OCCN(C)C)cc1)c1ccccc1 [tamoxifen, reference compound]
[7]
  liver area: maintained at the liver area level of normal juvenile fish

## [O-][S+](c1ccc(Cl)cc1)c1nccc2ccccc12 (centres unmarked) [Example 4, 1-((4-Chlorophenyl)Sulfinyl)Isoquinoline]
[1]
  NO production (% of control): 40 % of control
[2]; [8]
  Cell viability (% of control): 96 % of control

## [O-][S+](c1ccc(F)cc1F)c1nccc2ccccc12 (centres unmarked) [Example 3, 1-((2,4-Difluorophenyl)Sulfinyl)Isoquinoline]
[1]
  NO production (% of control): 30 % of control
[2]; [8]
  Cell viability (% of control): 103 % of control
